Measurements taken from patent EP1048659A1, “RETINOID RECEPTOR AGONISTS” (Institute of Medicinal Molecular Design, Inc., priority 1997, dated 1999).
Values joined by “and” are separate entries in the source; they are usually repeats but may differ in a detail not shown here. Equal entries are not always repeated.

System: Promyelocytic leukemia cell strain HL-60
Experiment: HL-60 cell differentiation induction (morphological change, NBT reduction), each compound alone and with coexisting retinoid Am80
Type: cell-based
Conditions: for Ratio of differentiation-induced cells with coexistence of 3×10^-9 Am80: Table 3; for ratios of differentiated cells, Coexisting retinoid (concentration) Am80 (-9): compound fixed at 1×10^-6 M with Am80 (-9); for ratios of differentiated cells, Coexisting retinoid (concentration) Am80 (-9.5): compound fixed at 1×10^-6 M with Am80 (-9.5); for ratios of differentiated cells, Coexisting retinoid (concentration) Am80 (-10): compound fixed at 1×10^-6 M with Am80 (-10); for ratios of differentiated cells, Coexisting retinoid (concentration) None: compound fixed at 1×10^-6 M, alone; for Ratio of differentiation-induced cells with coexistence of 1×10^-9 Am80: Table 1; for cell differentiation ability of the compound per se: compound used alone; for effect on the activity of the coexisting Am80 at a high concentration: compound at 1×10^-6 M; for Ratio of differentiation-induced cells with coexistence of 1×10^-10 Am80: Table 2
Protocol: Cell differentiation-inducing activity of each compound of the present invention used alone, and effect on cell differentiation-inducing activity of coexisting retinoid were examined. As a comparative or coexisting retinoid, Am80 ([4-[(5,6,7,8-tetrahydro-5,5,8,8-tetramethyl-2-naphthalenyl)carbamoyl]benzoic acid] was used. Promyelocytic leukemia cell strain HL-60 was used, and differentiation into granulocytic cells was determined by observing morphological change and measuring ability to reduce nitroblue tetrazolium (NBT). The ratios of differentiated cells shown in the following tables were calculated from the ability to reduce NBT. (A) Concentration-dependent differentiation-inducing ability of each compound alone and concentration-dependent effect on the differentiation-inducing ability of 1×10^-9 M Am80 were measured. […] Table 1 (B) Concentration-dependent differentiation-inducing ability of each compound alone and concentration-dependent effect on the differentiation inducing ability of 1×10^-10 M Am80 were measured. […] Table 2 (C) Concentration-dependent differentiation-inducing ability of each compound alone and concentration-dependent effect on the differentiation inducing ability of 3×10^-9 M Am80 were measured.

[1] = compound concentration -6, with 3×10^-9 M Am80
[2] = compound concentration -7, with 3×10^-9 M Am80
[3] = compound concentration -8, with 3×10^-9 M Am80
[4] = (A) 1×10^-9 M Am80, enhancement at a concentration which did not give the cell differentiation-inducing ability, result in words
[5] = compound concentration -7, with 1×10^-9 M Am80
[6] = compound concentration -8, with 1×10^-9 M Am80
[7] = compound concentration -6, with 1×10^-9 M Am80
[8] = (B) 1×10^-10 M Am80, result in words
[9] = compound concentration -6, with 1×10^-10 M Am80
[10] = compound concentration -7, with 1×10^-10 M Am80
[11] = compound concentration -8, with 1×10^-10 M Am80

Compound: CC1(C)CCC(C)(C)c2cc(C(=O)c3ccc(/C=C4\SC(=O)NC4=O)cc3)ccc21 [TZ221]
- Ratio of differentiation-induced cells with coexistence of 3×10^-9 Am80 [1]: 82
- Ratio of differentiation-induced cells with coexistence of 3×10^-9 Am80 [2]: 67
- Ratio of differentiation-induced cells with coexistence of 3×10^-9 Am80 [3]: 54

Compound: C=C(c1cccc(/C=C2\SC(=O)NC2=O)c1)c1ccc2c(c1)C(C)(C)CCC2(C)C [TZ243]
- ratios of differentiated cells, Coexisting retinoid (concentration) Am80 (-9) (Table 4): 77
- ratios of differentiated cells, Coexisting retinoid (concentration) Am80 (-9.5) (Table 4): 35
- ratios of differentiated cells, Coexisting retinoid (concentration) Am80 (-10) (Table 4): 5
- ratios of differentiated cells, Coexisting retinoid (concentration) None (Table 4): 4.2

Compound: CC1(C)CCC(C)(C)c2cc(Nc3ccc(/C=C4\SC(=O)NC4=O)cc3)ccc21 [TZ321]
- Ratio of differentiation-induced cells with coexistence of 3×10^-9 Am80 [1]: 88
- Ratio of differentiation-induced cells with coexistence of 3×10^-9 Am80 [2]: 83
- Ratio of differentiation-induced cells with coexistence of 3×10^-9 Am80 [3]: 55

Compound: CC1(C)CCC(C)(C)c2cc(C(=O)c3cccc(/C=C4\SC(=O)NC4=O)c3)ccc21 [TZ223]
- ratios of differentiated cells, Coexisting retinoid (concentration) Am80 (-9) (Table 4): 62
- ratios of differentiated cells, Coexisting retinoid (concentration) Am80 (-9.5) (Table 4): 22
- ratios of differentiated cells, Coexisting retinoid (concentration) Am80 (-10) (Table 4): 5
- ratios of differentiated cells, Coexisting retinoid (concentration) None (Table 4): 4.4

Compound: C/C(=C\c1ccc(/C=C2\SC(=O)NC2=O)cc1)c1ccc2c(c1)C(C)(C)CCC2(C)C [TZ91]
- effect on the activity of the coexisting Am80 [4]: enhanced the activity of the coexisting Am80
- Ratio of differentiation-induced cells with coexistence of 1×10^-9 Am80 [5]: 87%
- Ratio of differentiation-induced cells with coexistence of 1×10^-9 Am80 [6]: 62%
- Ratio of differentiation-induced cells with coexistence of 1×10^-9 Am80 (compound concentration -9, with 1×10^-9 M Am80): 58%
- cell differentiation ability of the compound per se (result in words): had cell differentiation ability

Compound: CN1c2ccccc2N=C(c2ccc(/C=C3\SC(=O)NC3=O)cc2)c2cc3c(cc21)C(C)(C)CCC3(C)C [TZ201]
- effect on the activity of the coexisting Am80 [4]: suppressed the activity of the coexisting Am80
- Ratio of differentiation-induced cells with coexistence of 1×10^-9 Am80 [7]: 5%
- Ratio of differentiation-induced cells with coexistence of 1×10^-9 Am80 [5]: 53%
- Ratio of differentiation-induced cells with coexistence of 1×10^-9 Am80 [6]: 64%
- cell differentiation ability of the compound per se (result in words): inactive

Compound: CN(C(=O)c1ccc2c(c1)C(C)(C)CCC2(C)C)c1ccc(/C=C2\SC(=O)NC2=O)cc1 [TZ191]
- effect on the activity of the coexisting Am80 at a high concentration [8]: acted to suppress the activity
- effect on the activity of the coexisting Am80 [8]: enhanced the activity of the coexisting Am80
- Ratio of differentiation-induced cells with coexistence of 1×10^-10 Am80 [9]: 28%
- Ratio of differentiation-induced cells with coexistence of 1×10^-10 Am80 [10]: 75%
- Ratio of differentiation-induced cells with coexistence of 1×10^-10 Am80 [11]: 63%
- cell differentiation ability of the compound per se (result in words): inactive

Compound: CC(C)(C)c1cc(C(=O)Nc2ccc(/C=C3\SC(=O)NC3=O)cc2)cc(C(C)(C)C)c1 [TZ151]
- effect on the activity of the coexisting Am80 [8]: enhanced the activity of the coexisting Am80
- Ratio of differentiation-induced cells with coexistence of 1×10^-10 Am80 [9]: 83%
- Ratio of differentiation-induced cells with coexistence of 1×10^-10 Am80 [10]: 43%
- Ratio of differentiation-induced cells with coexistence of 1×10^-10 Am80 [11]: 12%
- cell differentiation ability of the compound per se (result in words): had cell differentiation ability

Compound: Cc1cc2c(cc1C(=O)c1cccc(/C=C3\SC(=O)NC3=O)c1)C(C)(C)CCC2(C)C [TZ227]
- ratios of differentiated cells, Coexisting retinoid (concentration) Am80 (-9) (Table 4): 11.7
- ratios of differentiated cells, Coexisting retinoid (concentration) Am80 (-9.5) (Table 4): 5.5
- ratios of differentiated cells, Coexisting retinoid (concentration) Am80 (-10) (Table 4): 7
- ratios of differentiated cells, Coexisting retinoid (concentration) None (Table 4): 5.3

Compound: C=C(c1ccc(/C=C2\SC(=O)NC2=O)cc1)c1ccc2c(c1)C(C)(C)CCC2(C)C [TZ241]
- Ratio of differentiation-induced cells with coexistence of 3×10^-9 Am80 [1]: 92
- Ratio of differentiation-induced cells with coexistence of 3×10^-9 Am80 [2]: 84
- Ratio of differentiation-induced cells with coexistence of 3×10^-9 Am80 [3]: 76

Compound: C=C(c1cccc(/C=C2\SC(=O)NC2=O)c1)c1cc2c(cc1C)C(C)(C)CCC2(C)C [TZ247]
- ratios of differentiated cells, Coexisting retinoid (concentration) Am80 (-9) (Table 4): 10
- ratios of differentiated cells, Coexisting retinoid (concentration) Am80 (-9.5) (Table 4): 5.8
- ratios of differentiated cells, Coexisting retinoid (concentration) Am80 (-10) (Table 4): 6.4
- ratios of differentiated cells, Coexisting retinoid (concentration) None (Table 4): 7

Compound: CC1(C)CCC(C)(C)c2cc(C(=O)Nc3ccc(/C=C4\SC(=O)NC4=O)cc3)ccc21 [TZ181]
- effect on the activity of the coexisting Am80 [4]: enhanced the activity of the coexisting Am80
- Ratio of differentiation-induced cells with coexistence of 1×10^-9 Am80 [7]: 6%
- Ratio of differentiation-induced cells with coexistence of 1×10^-9 Am80 [5]: 58%
- Ratio of differentiation-induced cells with coexistence of 1×10^-9 Am80 [6]: 53%
- cell differentiation ability of the compound per se (result in words): had cell differentiation ability

Compound: CC1(C)CCC(C)(C)c2cc(NC(=O)c3ccc(C(=O)O)cc3)ccc21 [Am80, 4-[(5,6,7,8-tetrahydro-5,5,8,8-tetramethyl-2-naphthalenyl)carbamoyl]benzoic acid, reference compound]
- Ratio of differentiation-induced cells with coexistence of 1×10^-9 Am80 (test compound concentration None: 1×10^-9 M Am80 alone, control): 49% and 37% and 48%
- Ratio of differentiation-induced cells with coexistence of 1×10^-10 Am80 (test compound concentration None: 1×10^-10 M Am80 alone, control): 4% and 11%
- Ratio of differentiation-induced cells with coexistence of 3×10^-9 Am80 (test compound concentration None: 3×10^-9 M Am80 alone, control): 44 and 51
- ratios of differentiated cells, Am80 (-9) (Table 4, Compound None: Am80 alone at -9): 80
- ratios of differentiated cells, Am80 (-9.5) (Table 4, Compound None: Am80 alone at -9.5): 53
- ratios of differentiated cells, Am80 (-10) (Table 4, Compound None: Am80 alone at -10): 8.5

Compound: CN(C(=O)c1cc(C(C)(C)C)cc(C(C)(C)C)c1)c1ccc(/C=C2\SC(=O)NC2=O)cc1 [TZ161]
- effect on the activity of the coexisting Am80 at a high concentration [8]: acted to suppress the activity
- effect on the activity of the coexisting Am80 [8]: enhanced the activity of the coexisting Am80
- Ratio of differentiation-induced cells with coexistence of 1×10^-10 Am80 [9]: 3.8%
- Ratio of differentiation-induced cells with coexistence of 1×10^-10 Am80 [10]: 25%
- Ratio of differentiation-induced cells with coexistence of 1×10^-10 Am80 [11]: 12%
- cell differentiation ability of the compound per se (result in words): inactive

Compound: C=C(c1ccc(/C=C2\SC(=O)NC2=O)cc1)c1cc2c(cc1C)C(C)(C)CCC2(C)C [TZ245]
- Ratio of differentiation-induced cells with coexistence of 3×10^-9 Am80 [1]: 88
- Ratio of differentiation-induced cells with coexistence of 3×10^-9 Am80 [2]: 89
- Ratio of differentiation-induced cells with coexistence of 3×10^-9 Am80 [3]: 86

Compound: CN(c1ccc(/C=C2\SC(=O)NC2=O)cc1)c1ccc2c(c1)C(C)(C)CCC2(C)C [TZ325]
- Ratio of differentiation-induced cells with coexistence of 3×10^-9 Am80 [1]: 79
- Ratio of differentiation-induced cells with coexistence of 3×10^-9 Am80 [2]: 83
- Ratio of differentiation-induced cells with coexistence of 3×10^-9 Am80 [3]: 72

Compound: O=C1NC(=O)/C(=C/c2cccc(C(=O)NCc3ccc(C(F)(F)F)cc3)c2)S1 [TZ105, reference compound]
- effect on the activity of the coexisting retinoid Am80 ((E) comparison N-benzyl derivative, concentrations not given, result in words): failed to effect the activity of the coexisting retinoid Am80
- cell differentiation ability of the compound per se (result in words): completely inactive
